Data: ChEMBL document CHEMBL1909046, “DrugMatrix in vitro pharmacology data”

What was measured:
[1] = target: T1, Alpha-1B adrenergic receptor (Rattus norvegicus, UniProt P15823); experiment: DRUGMATRIX: Alpha-1B adrenergic receptor radioligand binding (ligand: prazosin); type: cell membranes, Wistar, Liver, Membrane; details: Not Active = under 50% inhibition at 10 µM
T1 sequence (P15823 whole entry): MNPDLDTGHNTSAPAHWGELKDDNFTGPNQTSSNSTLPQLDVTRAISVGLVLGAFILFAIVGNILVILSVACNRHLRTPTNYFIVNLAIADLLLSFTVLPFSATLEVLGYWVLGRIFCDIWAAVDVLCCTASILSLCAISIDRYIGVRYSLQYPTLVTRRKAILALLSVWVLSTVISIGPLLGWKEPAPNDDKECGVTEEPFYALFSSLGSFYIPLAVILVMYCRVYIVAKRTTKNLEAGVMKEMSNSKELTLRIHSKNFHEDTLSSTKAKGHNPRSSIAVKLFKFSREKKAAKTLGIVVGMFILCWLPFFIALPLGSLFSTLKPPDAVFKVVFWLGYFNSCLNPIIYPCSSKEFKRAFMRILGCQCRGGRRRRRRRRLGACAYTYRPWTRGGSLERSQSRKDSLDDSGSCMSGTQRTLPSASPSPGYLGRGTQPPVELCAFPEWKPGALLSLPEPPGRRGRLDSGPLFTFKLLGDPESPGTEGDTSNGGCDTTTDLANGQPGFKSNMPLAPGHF

[2] = target: Aldo-keto reductase family 1 member B1 (Rattus norvegicus, UniProt P07943); experiment: biochemical; type: tissue-based, Lens of camera-type eye;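 further: inhibition of aldose reductase enzyme activity, measured with DL-glyceraldehyde as the substrate; in other assays of this panel Not Active means under 50% inhibition at 10 µM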
[3] = target: Sodium-dependent dopamine transporter (Homo sapiens, UniProt Q01959); experiment: DRUGMATRIX: Dopamine Transporter radioligand binding (ligand: [125I] RTI-55); type: cell membranes, CHO-K1, Membrane; details: Not Active = under 50% inhibition at 10 µM
[4] = target: Mitogen-activated protein kinase 14 (Homo sapiens, UniProt Q16539); parameters: species or system Escherichia coli;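 further: inhibition of p38alpha enzyme activity in a biochemical kinase assay, with myelin basic protein serving as substrate; in other assays of this panel Not Active means under 50% inhibition at 10 µM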
Adenosine receptor A1 = target: T2, Adenosine receptor A1 (Homo sapiens, UniProt P30542); type: cell membranes, CHO, Membrane; details: cho;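 further: radioligand binding assay at the adenosine A1 receptor, with DPCPX serving as the labelled ligand; in other assays of this panel Not Active means under 50% inhibition at 10 µM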
T2 sequence (P30542 whole entry): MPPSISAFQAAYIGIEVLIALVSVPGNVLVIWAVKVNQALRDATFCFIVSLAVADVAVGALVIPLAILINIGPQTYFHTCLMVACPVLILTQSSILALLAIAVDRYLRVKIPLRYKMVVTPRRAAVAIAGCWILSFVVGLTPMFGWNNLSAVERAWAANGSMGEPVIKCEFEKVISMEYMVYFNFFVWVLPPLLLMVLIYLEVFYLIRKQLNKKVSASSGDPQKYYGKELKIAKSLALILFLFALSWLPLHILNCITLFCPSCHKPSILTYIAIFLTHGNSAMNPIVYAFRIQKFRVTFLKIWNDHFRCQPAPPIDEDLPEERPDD

Cytochrome P450 2A6 = target: T3, Cytochrome P450 2A6 (Homo sapiens, UniProt P11509); details: bti-tn-5b1-4; further: in other assays of this panel Not Active means under 50% inhibition at 10 µM
T3 sequence (P11509 whole entry): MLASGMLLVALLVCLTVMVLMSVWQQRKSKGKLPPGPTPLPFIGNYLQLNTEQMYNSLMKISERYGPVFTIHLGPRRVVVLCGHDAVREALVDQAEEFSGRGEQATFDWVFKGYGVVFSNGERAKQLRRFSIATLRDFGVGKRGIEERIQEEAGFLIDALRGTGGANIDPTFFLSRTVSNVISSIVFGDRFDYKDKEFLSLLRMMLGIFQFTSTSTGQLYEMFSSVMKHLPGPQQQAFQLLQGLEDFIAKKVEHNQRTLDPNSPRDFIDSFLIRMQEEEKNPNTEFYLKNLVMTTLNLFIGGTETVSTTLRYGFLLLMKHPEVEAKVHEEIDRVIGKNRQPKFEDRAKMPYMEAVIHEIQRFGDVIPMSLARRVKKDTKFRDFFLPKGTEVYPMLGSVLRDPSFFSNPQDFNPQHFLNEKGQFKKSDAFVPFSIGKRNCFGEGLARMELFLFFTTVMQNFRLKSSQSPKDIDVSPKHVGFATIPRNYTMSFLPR

Chain of Sodium-dependent dopamine transporter (Q01959 whole entry): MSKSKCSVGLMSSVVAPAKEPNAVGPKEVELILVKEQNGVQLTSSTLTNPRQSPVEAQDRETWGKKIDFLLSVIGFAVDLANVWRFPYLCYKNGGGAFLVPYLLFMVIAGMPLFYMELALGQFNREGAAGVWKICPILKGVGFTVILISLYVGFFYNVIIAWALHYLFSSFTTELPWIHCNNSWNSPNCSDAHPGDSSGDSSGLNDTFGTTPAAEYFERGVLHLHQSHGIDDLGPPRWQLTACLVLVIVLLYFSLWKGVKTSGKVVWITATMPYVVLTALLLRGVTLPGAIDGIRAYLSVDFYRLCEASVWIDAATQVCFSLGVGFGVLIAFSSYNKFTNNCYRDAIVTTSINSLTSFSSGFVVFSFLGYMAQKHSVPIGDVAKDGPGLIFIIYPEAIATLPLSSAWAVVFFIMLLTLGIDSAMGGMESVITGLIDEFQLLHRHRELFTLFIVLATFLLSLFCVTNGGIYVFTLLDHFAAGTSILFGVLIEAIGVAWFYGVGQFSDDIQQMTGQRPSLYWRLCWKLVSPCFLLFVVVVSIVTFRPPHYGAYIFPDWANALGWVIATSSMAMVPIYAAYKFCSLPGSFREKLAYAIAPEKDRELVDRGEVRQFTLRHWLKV
Chain of Mitogen-activated protein kinase 14 (Q16539 whole entry): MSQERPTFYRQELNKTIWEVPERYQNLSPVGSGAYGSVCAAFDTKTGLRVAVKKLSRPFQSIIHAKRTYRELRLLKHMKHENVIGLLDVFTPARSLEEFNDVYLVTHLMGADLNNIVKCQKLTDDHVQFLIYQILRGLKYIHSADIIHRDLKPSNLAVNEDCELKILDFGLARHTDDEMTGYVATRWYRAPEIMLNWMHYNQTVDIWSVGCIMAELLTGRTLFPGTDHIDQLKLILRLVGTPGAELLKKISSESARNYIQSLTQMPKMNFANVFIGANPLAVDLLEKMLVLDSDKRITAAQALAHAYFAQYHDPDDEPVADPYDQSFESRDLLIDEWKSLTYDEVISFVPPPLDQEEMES

Row | Compound | IC50 [1] | Ki [1] | IC50 [2] | Ki [2] | IC50 ([3]; cho-k1) | Ki ([3]; cho-k1) | IC50 [4] | Ki [4] | IC50 (Adenosine receptor A1) | Ki (Adenosine receptor A1) | IC50 (Cytochrome P450 2A6) | Ki (Cytochrome P450 2A6) | IC50 ([1]; read-out: IC50) [nM] | Ki ([1]; read-out: Ki) [nM] | IC50 ([3]; read-out: IC50) [nM] | Ki ([3]; read-out: Ki) [nM]
1 | CADMIUM ACETATE | Not Active | Not Active | Not Active | Not Active | Not Active | Not Active | Not Active | Not Active | Not Active | Not Active | Not Active | Not Active |  |  |  | 
2 | C[C@]12CCC(=O)C=C1CC[C@@H]1[C@@H]2CC[C@@]2(C)[C@H]1CC[C@]2(C)O [METHYLTESTOSTERONE] | Not Active |  | Not Active |  | Not Active |  | Not Active |  | Not Active |  | Not Active | Not Active |  |  |  | 
3 | CC(=O)O[C@@]12CO[C@@H]1C[C@H](O)[C@@]1(C)C(=O)[C@H](O)C3=C(C)[C@@H](OC(=O)[C@H](O)[C@@H](NC(=O)OC(C)(C)C)c4ccccc4)C[C@@](O)([C@@H](OC(=O)c4ccccc4)[C@H]21)C3(C)C.O.O.O [DOCETAXEL] | Not Active |  | Not Active |  | Not Active |  | Not Active |  | Not Active |  | Not Active | Not Active |  |  |  | 
4 | Nc1ncn([C@@H]2O[C@H](CO)[C@@H](O)[C@H]2O)c(=O)n1 [AZACITIDINE] | Not Active |  | Not Active |  | Not Active |  | Not Active |  | Not Active |  | Not Active | Not Active |  |  |  | 
5 | C[C@](N)(Cc1ccc(O)c(O)c1)C(=O)O [METHYLDOPA] | Not Active |  | Not Active |  | Not Active |  | Not Active |  | Not Active |  | Not Active | Not Active |  |  |  | 
6 | O=C(CCCN1CC=C(n2c(=O)[nH]c3ccccc32)CC1)c1ccc(F)cc1 [DROPERIDOL] |  |  | Not Active |  | Not Active |  | Not Active |  | Not Active |  | Not Active | Not Active | 18 | 9.78 |  | 
7 | CN(C)CCCN1c2ccccc2Sc2ccccc21 [PROMAZINE] |  |  | Not Active |  | Not Active |  | Not Active |  | Not Active |  | Not Active | Not Active | 8.19 | 4.53 |  | 
8 | CC1CC(OC(=O)C(O)c2ccccc2)CC(C)(C)C1 (stereo unspecified) [CYCLANDELATE] | Not Active |  | Not Active |  | Not Active |  | Not Active |  | Not Active |  | Not Active | Not Active |  |  |  | 
9 | CCCN1C[C@H](CSC)C[C@@H]2c3cccc4[nH]cc(c34)C[C@H]21 [PERGOLIDE] |  |  | Not Active |  | Not Active |  | Not Active |  | Not Active |  | Not Active | Not Active | 2620 | 1450 |  | 
10 | c1ccc2c(c1)c1cccc3ccc4cccc2c4c31 [BENZO[E]PYRENE] | Not Active |  | Not Active |  | Not Active |  | Not Active |  | Not Active |  | Not Active | Not Active |  |  |  | 
11 | CC(C)[C@@]1(NC(=O)[C@@H]2C[C@@H]3c4cccc5[nH]cc(c45)C[C@H]3N(C)C2)O[C@@]2(O)[C@@H]3CCCN3C(=O)[C@H](Cc3ccccc3)N2C1=O.CS(=O)(=O)O [DIHYDROERGOCRISTINE MESYLATE] |  |  | Not Active |  | Not Active |  | Not Active |  | Not Active |  | Not Active | Not Active | 2.3 | 1.27 |  | 
12 | CC[C@@]1(O)C[C@H](O[C@H]2C[C@H](N(C)C)[C@H](O[C@H]3C[C@H](O)[C@H](O[C@H]4CCC(=O)[C@H](C)O4)[C@H](C)O3)[C@H](C)O2)c2c(cc3c(c2O)C(=O)c2c(O)cccc2C3=O)[C@H]1C(=O)OC [ACLARUBICIN] | Not Active |  | Not Active |  | Not Active |  | Not Active |  | Not Active |  | Not Active | Not Active |  |  |  | 
13 | CCn1cc(C(=O)O)c(=O)c2cc(F)c(N3CCNCC3)cc21 [NORFLOXACIN] | Not Active |  | Not Active |  | Not Active |  | Not Active |  | Not Active |  | Not Active | Not Active |  |  |  | 
14 | Cc1c(O)c(=O)ccn1C [DEFERIPRONE] | Not Active |  | Not Active |  | Not Active |  | Not Active |  | Not Active |  | Not Active | Not Active |  |  |  | 
15 | NC1=NC(=O)C(c2ccccc2)O1 (stereo unspecified) [PEMOLINE] | Not Active |  | Not Active |  |  |  | Not Active |  | Not Active |  | Not Active | Not Active |  |  | 521 | 414
16 | Sc1ncnc2nc[nH]c12 [MERCAPTOPURINE ANHYDROUS] | Not Active |  | Not Active |  | Not Active |  | Not Active |  | Not Active |  | Not Active | Not Active |  |  |  | 
17 | COCCc1ccc(OCC(O)CNC(C)C)cc1 (stereo unspecified) [METOPROLOL] | Not Active |  | Not Active |  | Not Active |  | Not Active |  | Not Active |  | Not Active | Not Active |  |  |  | 
18 | O=c1[nH]c(=O)n([C@H]2C[C@H](O)[C@@H](CO)O2)cc1I [IDOXURIDINE] | Not Active |  | Not Active |  | Not Active |  | Not Active |  | Not Active |  | Not Active | Not Active |  |  |  | 
19 | CNNCc1ccc(C(=O)NC(C)C)cc1 [PROCARBAZINE] | Not Active |  | Not Active |  | Not Active |  | Not Active |  | Not Active |  | Not Active | Not Active |  |  |  | 
20 | CC(C)C(=O)Nc1ccc([N+](=O)[O-])c(C(F)(F)F)c1 [FLUTAMIDE] | Not Active |  | Not Active |  | Not Active |  | Not Active |  | Not Active |  | Not Active | Not Active |  |  |  | 
21 | LEAD (II) ACETATE | Not Active | Not Active | Not Active | Not Active | Not Active | Not Active | Not Active | Not Active | Not Active | Not Active | Not Active | Not Active |  |  |  | 
22 | C[C@H]1c2cccc(O)c2C(=O)C2=C(O)[C@]3(O)C(=O)C(C(N)=O)=C(O)[C@@H](N(C)C)[C@@H]3[C@@H](O)[C@@H]21.O [DOXYCYCLINE] | Not Active |  | Not Active |  | Not Active |  | Not Active |  | Not Active |  | Not Active | Not Active |  |  |  | 
23 | COc1ccc(C[C@H]2NC[C@H](O)[C@H]2OC(C)=O)cc1 [ANISOMYCIN] | Not Active | Not Active | Not Active | Not Active | Not Active | Not Active | Not Active | Not Active | Not Active | Not Active | Not Active | Not Active |  |  |  | 
